Here are results for 9 compounds from US8945597B2, “Botanical insecticides” (priority 2012, dated 2015).

The first assay has as its system planthopper nymphs (nilaparvata legen). The assay can be described thus: Insecticidal efficacy test against planthopper nymphs (POTTER sprayer). The format is in vivo. As to conditions: concentration 20 mg/L; sprayed; mid 3rd instar nymphs; mortality after 72 hours. On the procedure: Insecticidal efficacy test against planthopper nymphs (nilaparvata legen). Some rice seedling leaves are mounted with white quartz sand in a Petri dish with 5 cm diameter containing 5 ml water. Planthoppers nymphs of mid 3rd instar were anesthetized by CO2. 20-30 anesthetized nymphs are transferred to each Petri dish and placed under the POTTER sprayer. Same amount of testing chemical is sprayed into each Petri dish and covered with transparent plastic cup. Use nitenpyram 20 mg/L for comparison and water as control.
Turning to `CCN(Cc1ccc(Cl)nc1)/C(=C/[N+](=O)[O-])NC` [Nitenpyram], the MOTALITY % stood at 100%.

For a further assay, the system named is pest insects. Kind of assay: Insecticidal properties of terpenes/terpenoids (test not described). As to conditions: tested and proved; test details not given.
In the case of `C[C@@H]1CC[C@H]2C(C)(C)C3C[C@@]12CC[C@@]3(C)O` [Embodiment 8-epicedrol, 8-epicedrol], the insecticidal properties result is reported as “significant insecticidal properties”.

Regarding `C=CCS[S@@+]([O-])CC=C` (stereo in doubt) [allicin], the insecticidal properties result is “significant insecticidal properties”. Still for that read-out and setting: with `C=C1CC/C=C(\C)CC[C@@H]2[C@@H]1CC2(C)C` [β-caryophyllene] the entry was “significant insecticidal properties”. Still for that read-out and setting: the same measure for `CC(C)[C@@H]1CC[C@@H](C)C[C@H]1O` [3-p-menthanol]: “significant insecticidal properties”. The same measure, in the same setting: with ocimene the entry was “significant insecticidal properties”; with `Cc1ccc(C(C)C)cc1` [p-cymene], “significant insecticidal properties”; with pinene, “significant insecticidal properties”. Regarding `CC12CCC(CC1)C(C)(C)O2` [1,8-cineole], the insecticidal properties result is “significant insecticidal properties”.

The test system of a further assay is Aphid nymphs (Aphis medicagini). Kind of assay: Insecticidal efficacy test against aphid nymphs (leaf disc dip). The format is in vivo. The settings on record: concentration 20 mg/L; leaf disc dipped 5 seconds; mortality after 24 hours. On the procedure: Insecticidal Efficacy Test Against Aphid Nymphs (Aphis medicagini)
Take the first preferred embodiment, diluted in water in two different concentrations, A with 1% weight content of active ingredients, B with 0.1% active ingredients. Vicia leaf cut into round disc in 2 cm diameter, back up placed on a small cotton ball, and then mounted in a Petri dish, 5 ml water is added. Mature aphids are transferred onto the leaf disc to hatch aphid nymphs. Mature aphids are removed after 24 hours and 20-30 aphid nymphs are left on the leave disc and continue to culture for one day. The leave disc with aphid nymphs is merged into solution A and B for 5 seconds, excessive fluid on the leaf surface is absorbed by paper tower. Leaf disc is then mounted back to the cotton ball for another 24 hours observation. Use Nitenpyram 20 mg/L for comparison and water as control.
In the case of `CCN(Cc1ccc(Cl)nc1)/C(=C/[N+](=O)[O-])NC` [Nitenpyram], the MOTALITY % is given as 100%.
